From the NIST ThermoML archive (doi:10.1021/acs.jced.5b00260)

Assay: mn = molality of the nth substance listed, in mol/kg
Conditions: 100 kPa, Liquid, Vibrating tube method

C[C@H](N)C(=O)O [(S)-2-aminopropanoic acid] + O
mass density [kg/m3]
Conditions	m1 = 0.1	m1 = 0.2	m1 = 0.3	m1 = 0.4
298.2 K	999.9	1002.7	1005.5	1008.2
303.2 K	998.4	1001.9	1004.1	1006.8
308.2 K	996.8	1000.1	1002.3	1004.1
